Assay results reported in ChEMBL document CHEMBL5465560, “Selectivity Literature for EUbOPEN Chemogenomic Library” (2024).
pIC50: −log10 of the molar value.

Columns and labels:
[1] = target: Casein kinase I isoform gamma-2 (Homo sapiens) (UniProt P78368); experiment: Selectivity interaction (KinomeScan (DiscoverX)) EUB0000229b CSNK1G2; details: at 10 µM
[2] = target: cAMP-dependent protein kinase catalytic subunit alpha (Homo sapiens, UniProt P17612); experiment: Selectivity interaction (Enzyme panel (AstraZeneca, AlphaScreen, functional assay)) EUB0000621a PRKACA
[3] = target: Dual specificity tyrosine-phosphorylation-regulated kinase 1B (Homo sapiens, UniProt Q9Y463); experiment: Selectivity interaction (Enzymatic assay) EUB0001550a DYRK1B
Dual specificity tyrosine-phosphorylation-regulated kinase 1B, sequence (Q9Y463 whole entry): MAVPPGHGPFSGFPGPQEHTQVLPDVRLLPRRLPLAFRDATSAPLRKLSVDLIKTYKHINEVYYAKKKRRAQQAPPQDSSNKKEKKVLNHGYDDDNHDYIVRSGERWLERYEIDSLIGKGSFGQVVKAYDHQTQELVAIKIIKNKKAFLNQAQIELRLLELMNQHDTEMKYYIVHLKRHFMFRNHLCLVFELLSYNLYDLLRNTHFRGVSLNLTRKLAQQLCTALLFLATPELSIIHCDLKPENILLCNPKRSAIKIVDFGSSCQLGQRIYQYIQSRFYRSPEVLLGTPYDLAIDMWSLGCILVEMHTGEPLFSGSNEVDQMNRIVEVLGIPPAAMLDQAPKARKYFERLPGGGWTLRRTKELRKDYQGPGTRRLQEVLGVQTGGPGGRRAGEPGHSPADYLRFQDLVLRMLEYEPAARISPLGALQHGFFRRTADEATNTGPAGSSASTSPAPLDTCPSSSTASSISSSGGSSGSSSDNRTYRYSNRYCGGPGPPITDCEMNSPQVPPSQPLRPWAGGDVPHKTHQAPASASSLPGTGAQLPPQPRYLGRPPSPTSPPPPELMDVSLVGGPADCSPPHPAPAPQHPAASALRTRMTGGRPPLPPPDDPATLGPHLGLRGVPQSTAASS

[4] = target: Mitogen-activated protein kinase 1 (Homo sapiens, UniProt P28482); experiment: Selectivity interaction (ActivX KiNativ screen (ex vivo kinase selectivity in human PBMCs)) EUB0001619a MAPK1; assay type: cell-based; details: PBMC, at 1 µM
Mitogen-activated protein kinase 1, sequence (P28482 whole entry): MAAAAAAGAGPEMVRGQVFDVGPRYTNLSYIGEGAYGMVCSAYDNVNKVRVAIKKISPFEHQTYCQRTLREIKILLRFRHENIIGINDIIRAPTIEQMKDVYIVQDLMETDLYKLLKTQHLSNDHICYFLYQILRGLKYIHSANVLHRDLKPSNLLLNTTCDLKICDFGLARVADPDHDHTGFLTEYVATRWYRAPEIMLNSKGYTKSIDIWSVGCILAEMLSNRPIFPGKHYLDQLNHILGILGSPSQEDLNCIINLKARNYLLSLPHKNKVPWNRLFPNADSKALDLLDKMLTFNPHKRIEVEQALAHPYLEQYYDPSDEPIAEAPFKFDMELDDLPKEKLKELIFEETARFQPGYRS

[5] = target: T1, Muscle, skeletal receptor tyrosine-protein kinase (Homo sapiens) (UniProt O15146); experiment: Selectivity interaction (KinomeScan (DiscoverX)) EUB0000607a MUSK; details: at 10 µM
T1 sequence (whole entry): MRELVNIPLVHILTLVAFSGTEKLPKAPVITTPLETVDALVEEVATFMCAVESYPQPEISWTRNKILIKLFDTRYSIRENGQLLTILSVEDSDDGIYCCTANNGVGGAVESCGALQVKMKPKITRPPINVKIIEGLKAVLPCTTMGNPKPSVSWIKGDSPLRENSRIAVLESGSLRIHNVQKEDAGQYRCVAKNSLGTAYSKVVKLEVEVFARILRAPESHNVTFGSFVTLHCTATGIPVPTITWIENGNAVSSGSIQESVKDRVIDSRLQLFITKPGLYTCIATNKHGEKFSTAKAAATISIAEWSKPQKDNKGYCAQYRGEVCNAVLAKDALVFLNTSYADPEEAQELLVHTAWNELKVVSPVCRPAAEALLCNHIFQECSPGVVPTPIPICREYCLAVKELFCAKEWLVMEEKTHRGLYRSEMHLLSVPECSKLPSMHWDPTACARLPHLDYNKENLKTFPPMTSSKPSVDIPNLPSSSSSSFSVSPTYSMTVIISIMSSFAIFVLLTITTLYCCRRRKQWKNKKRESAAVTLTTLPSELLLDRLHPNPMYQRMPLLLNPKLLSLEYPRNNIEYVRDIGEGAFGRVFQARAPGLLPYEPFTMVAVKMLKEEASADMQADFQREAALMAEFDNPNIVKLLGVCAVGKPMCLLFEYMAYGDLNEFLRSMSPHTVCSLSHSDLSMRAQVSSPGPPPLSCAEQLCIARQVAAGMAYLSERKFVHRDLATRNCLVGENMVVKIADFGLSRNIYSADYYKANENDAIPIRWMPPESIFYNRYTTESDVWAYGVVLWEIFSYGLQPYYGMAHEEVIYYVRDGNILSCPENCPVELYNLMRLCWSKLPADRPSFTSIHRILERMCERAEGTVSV

[6] = target: Ribosomal protein S6 kinase alpha-2 (Homo sapiens) (UniProt Q15349); experiment: Selectivity interaction (ActivX KiNativ screen (kinase selectivity in THP-1 cell lysates)) EUB0000639a RPS6KA2; assay type: subcellular; details: lysate, at 1 µM
Ribosomal protein S6 kinase alpha-2 (Homo sapiens), sequence (Q15349 whole entry): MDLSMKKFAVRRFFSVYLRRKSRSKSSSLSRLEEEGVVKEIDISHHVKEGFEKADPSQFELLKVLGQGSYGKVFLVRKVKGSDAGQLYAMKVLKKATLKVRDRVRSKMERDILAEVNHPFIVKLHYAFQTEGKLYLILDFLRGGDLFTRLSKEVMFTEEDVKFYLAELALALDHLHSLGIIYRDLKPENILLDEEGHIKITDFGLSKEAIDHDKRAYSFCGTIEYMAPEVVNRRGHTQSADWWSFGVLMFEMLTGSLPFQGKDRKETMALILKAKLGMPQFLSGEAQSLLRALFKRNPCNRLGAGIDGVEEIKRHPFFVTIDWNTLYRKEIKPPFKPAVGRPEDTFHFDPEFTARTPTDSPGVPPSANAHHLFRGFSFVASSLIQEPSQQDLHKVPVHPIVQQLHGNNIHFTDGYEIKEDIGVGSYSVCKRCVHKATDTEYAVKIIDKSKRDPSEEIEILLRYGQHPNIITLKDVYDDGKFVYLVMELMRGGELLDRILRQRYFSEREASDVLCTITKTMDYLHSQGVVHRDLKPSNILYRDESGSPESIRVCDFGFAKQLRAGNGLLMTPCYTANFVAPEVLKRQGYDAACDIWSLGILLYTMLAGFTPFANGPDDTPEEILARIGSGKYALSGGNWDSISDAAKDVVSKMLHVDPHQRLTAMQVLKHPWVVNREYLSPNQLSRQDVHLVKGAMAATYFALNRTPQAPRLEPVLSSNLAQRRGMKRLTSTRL

[7] = target: T2, Cyclin-G-associated kinase (Homo sapiens) (UniProt O14976); experiment: Selectivity interaction (KinomeScan (DiscoverX)) EUB0000655a GAK; details: at 10 µM
T2 sequence (whole entry): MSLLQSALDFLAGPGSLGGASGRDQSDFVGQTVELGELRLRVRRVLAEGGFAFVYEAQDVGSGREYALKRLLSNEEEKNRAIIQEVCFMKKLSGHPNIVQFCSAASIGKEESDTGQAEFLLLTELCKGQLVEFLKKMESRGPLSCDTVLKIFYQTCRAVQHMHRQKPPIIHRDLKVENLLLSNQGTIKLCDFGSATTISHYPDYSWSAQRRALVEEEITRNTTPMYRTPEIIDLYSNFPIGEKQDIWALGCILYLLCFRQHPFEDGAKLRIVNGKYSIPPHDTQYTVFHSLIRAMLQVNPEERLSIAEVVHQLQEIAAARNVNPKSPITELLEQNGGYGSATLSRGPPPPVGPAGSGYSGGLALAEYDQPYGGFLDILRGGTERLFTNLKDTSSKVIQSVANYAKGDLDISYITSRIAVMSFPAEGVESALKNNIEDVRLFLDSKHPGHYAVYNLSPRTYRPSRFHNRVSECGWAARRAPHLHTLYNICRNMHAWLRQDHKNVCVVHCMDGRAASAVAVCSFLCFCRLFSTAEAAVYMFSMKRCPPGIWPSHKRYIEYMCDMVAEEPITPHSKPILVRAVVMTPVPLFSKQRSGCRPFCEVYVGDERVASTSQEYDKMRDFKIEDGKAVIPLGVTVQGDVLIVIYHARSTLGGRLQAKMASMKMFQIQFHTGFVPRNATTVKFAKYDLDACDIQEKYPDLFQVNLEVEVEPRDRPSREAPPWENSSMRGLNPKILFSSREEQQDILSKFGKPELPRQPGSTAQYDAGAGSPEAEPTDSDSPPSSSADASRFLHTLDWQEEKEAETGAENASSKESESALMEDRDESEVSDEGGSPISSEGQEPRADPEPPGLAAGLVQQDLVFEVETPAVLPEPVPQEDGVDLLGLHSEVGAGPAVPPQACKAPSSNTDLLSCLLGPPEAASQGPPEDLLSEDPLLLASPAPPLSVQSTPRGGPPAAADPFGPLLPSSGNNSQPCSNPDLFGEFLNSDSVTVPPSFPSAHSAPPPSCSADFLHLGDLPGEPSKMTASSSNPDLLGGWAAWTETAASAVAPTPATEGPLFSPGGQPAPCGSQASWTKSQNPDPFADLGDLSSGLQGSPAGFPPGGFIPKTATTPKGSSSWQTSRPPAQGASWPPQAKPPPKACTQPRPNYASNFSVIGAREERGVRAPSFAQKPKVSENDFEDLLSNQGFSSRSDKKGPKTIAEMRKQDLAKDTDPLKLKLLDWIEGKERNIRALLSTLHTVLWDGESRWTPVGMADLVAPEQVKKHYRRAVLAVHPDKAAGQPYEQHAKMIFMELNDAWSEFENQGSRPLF

[8] = Selectivity interaction (KinomeScan (DiscoverX)) EUB0000655a PKNB; details: at 10 µM

Casein kinase I isoform gamma-2 (Homo sapiens), sequence (P78368 whole entry, looked up, canonical isoform): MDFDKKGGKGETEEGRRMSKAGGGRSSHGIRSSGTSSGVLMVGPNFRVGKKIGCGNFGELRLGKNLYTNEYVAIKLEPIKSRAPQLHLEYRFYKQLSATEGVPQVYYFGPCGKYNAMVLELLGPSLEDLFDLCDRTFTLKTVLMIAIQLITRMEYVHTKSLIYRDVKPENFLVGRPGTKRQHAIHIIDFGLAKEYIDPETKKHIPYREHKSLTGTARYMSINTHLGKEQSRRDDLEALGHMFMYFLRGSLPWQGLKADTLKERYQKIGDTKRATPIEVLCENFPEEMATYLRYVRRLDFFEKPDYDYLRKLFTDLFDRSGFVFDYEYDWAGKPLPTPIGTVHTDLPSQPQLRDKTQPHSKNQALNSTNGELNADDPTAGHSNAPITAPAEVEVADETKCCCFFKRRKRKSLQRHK

COc1cc(N(C)c2ccnc3ccc(C(F)(F)F)cc23)cc(OC)c1OC
% binding [1]: 96%

Cc1cc([C@@H](C)Nc2ccccc2C(=O)O)c2nc(N3CCOCC3)cc(=O)n2c1 [AZD-6482]
pIC50 [2]: < 3.00

CN(C)CC#Cc1ccc2[nH]c3c(c2c1)-c1nc(N)ncc1CCC3
pIC50 [3]: 6.42

N#Cc1cccc(-c2c[nH]c3ncnc(N4CCOCC4)c23)c1
% of inhibition [4]: 3%

CNC(=O)Nc1ccc(-c2nc(N3CC4CCC(C3)O4)c3cnn(C4CCC5(CC4)OCCO5)c3n2)cc1
% of control [5]: 92%

CC[C@@H]1[C@H](F)C(=O)N[C@@H]1COc1nccc2cc(C(N)=O)c(OC)cc12 [ZIMLOVISERTIB]
% of inhibition [6]: 8%

CN(C)CCOc1ccc(-c2nc(-c3ccncc3)c(-c3ccc4c(c3)CC/C4=N\O)[nH]2)cc1
% of control [7]: 25% | % of control [8]: 65%
